Assay results: US10683278B2 (JINAN UNIVERSITY, priority 2015, dated 2020)

Molecular target: T1, AXL kinase (Homo sapiens, UniProt P30530)
T1 construct: purchased Invitrogen PV4803
T1 sequence (P30530 26-894): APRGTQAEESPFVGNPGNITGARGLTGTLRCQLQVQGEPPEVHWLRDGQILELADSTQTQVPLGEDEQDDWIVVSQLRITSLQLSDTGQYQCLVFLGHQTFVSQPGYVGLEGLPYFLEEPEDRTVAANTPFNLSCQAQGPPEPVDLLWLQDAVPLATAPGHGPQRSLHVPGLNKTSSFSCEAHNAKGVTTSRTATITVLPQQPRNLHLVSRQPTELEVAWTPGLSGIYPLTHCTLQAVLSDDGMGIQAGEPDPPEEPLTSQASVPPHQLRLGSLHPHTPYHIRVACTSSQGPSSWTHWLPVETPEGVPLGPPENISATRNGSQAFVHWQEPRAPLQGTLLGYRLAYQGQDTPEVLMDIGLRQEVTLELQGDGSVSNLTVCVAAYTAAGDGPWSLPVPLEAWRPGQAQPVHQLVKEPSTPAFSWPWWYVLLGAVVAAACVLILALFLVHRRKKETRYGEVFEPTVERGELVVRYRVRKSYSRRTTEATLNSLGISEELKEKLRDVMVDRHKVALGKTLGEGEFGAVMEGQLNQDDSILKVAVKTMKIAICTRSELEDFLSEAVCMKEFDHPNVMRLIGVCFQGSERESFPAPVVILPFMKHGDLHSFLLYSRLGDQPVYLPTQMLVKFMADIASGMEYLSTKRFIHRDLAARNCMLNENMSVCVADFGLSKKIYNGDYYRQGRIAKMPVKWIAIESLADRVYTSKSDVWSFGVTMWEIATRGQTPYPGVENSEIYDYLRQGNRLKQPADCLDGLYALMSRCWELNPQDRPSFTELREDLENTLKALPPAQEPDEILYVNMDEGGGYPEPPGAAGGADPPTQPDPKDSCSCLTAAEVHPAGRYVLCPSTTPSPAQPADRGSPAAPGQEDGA
Experiment: IC50 test on AXL kinase (Z′-LYTE FRET kinase activity detection)
Format: biochemical
Conditions: Z′-LYTE FRET peptide assay, 1 h reaction
From the text: Kinase activity detection: The activity of compounds on kinases was detected by a secondary reaction which used the Z′-LYTE™ technique (a detection using fluorescence, enzyme coupling, and based on differences in susceptibility of phosphorylated and non-phosphorylated polypeptides to proteolytic cleavage), followed the fluorescence resonance energy transfer (FRET) principle, and used Z′-LYTE™ FRET peptide substrates (Invitrogen, Z′-LYTE™ KINASE ASSAY KIT—TYR 2 PEPTIDE, PV3191). AXL kinase (invitrogen, PV4803) was diluted stepwise, FRET peptide was then added, followed by ATP, then by compounds at different concentrations, reacted for 1 h, site-specific proteases were then added to recognize and cleave non-phosphorylated FRET peptides, reacted for 1 h, and […] at 445 nm and 520 nm were detected using excitation wavelength of 400 nm.

## CCc1ccc2c(c1)c(=O)c(C(=O)Nc1ccc(Oc3ccnc(NCc4ccccc4)c3)c(F)c1)c(C)n2C
  IC50: > 10000 nM

## 6-ethyl-N-(3-fluoro-4-(3-phenylfuro[2,3-b]pyridin-4-yloxy)phenyl)-1,2-dimethyl-4-oxo-1,4-dihydroquinoline-3-carboxamide [GDL5000039]
  IC50: 192 nM

## CCc1ccc2c(c1)c(=O)c(C(=O)Nc1ccc(Oc3ccnc(C(N)=O)c3)c(F)c1)c(C)n2C [GDL5000045, N-(4-(2-carbamoylpyridin-4-yloxy)-3-fluorophenyl)-6-ethyl-1,2-dimethyl-4-oxo-1,4-dihydroquinoline-3-carboxamide]
  IC50: 4380 nM

## CCc1ccc2c(c1)c(=O)c(C(=O)Nc1ccc(Oc3ccnc(N)c3)c(F)c1)c(C)n2C [GDL5000050, N-(4-(2-aminopyridin-4-yloxy)-3-fluorophenyl)-6-ethyl-1,2-dimethyl-4-oxo-1,4-dihydroquinoline-3-carboxamide]
  IC50: 888 nM

## CC1CCc2c(N3CCC(O)CC3)c(F)cc3c(=O)c(C(=O)Nc4ccc(Oc5ncnc6[nH]cc(-c7ccccc7)c56)c(F)c4)cn1c23 (stereo not drawn) [GDL5000076, 9-fluoro-N-(3-fluoro-4-((5-phenyl-7H-pyrrolo[2,3-d]pyrimidin-4-yl)oxy)phenyl)-8-(4-hydroxypiperidin-1-yl)-5-methyl-1-oxo-1,5,6,7-tetrahydropyrido[3,2,1-ij]quinoline-2-carboxamide]
  IC50: 627 nM

## COc1cc2ncnc(Oc3ccc(NC(=O)c4c5n(c6cc(N7CCN(Cc8oc(=O)oc8C)CC7)c(F)cc6c4=O)C(C)S5)cc3F)c2cc1OC (stereo not drawn) [GDL5000082, N-(4-((6,7-dimethoxyquinazolin-4-yl)oxy)-3-fluorophenyl)-6-fluoro-1-methyl-7-(4-((5-methyl-2-oxo-1,3-dioxol-4-yl)methyl)piperazin-1-yl)-4-oxo-1,4-dihydro-[1,3]thiazeto[3,2-a]quinoline-3-carboxamide]
  IC50: 720 nM

## Cc1ccc2c(c1)c(=O)c(C(=O)Nc1ccc(Oc3ncnc4[nH]cc(-c5ccccc5)c34)c(F)c1)c(C)n2-c1ccccc1 [GDL5000083, N-(3-fluoro-4-((5-phenyl-7H-pyrrolo[2,3-d]pyrimidine-4-yl)oxy)phenyl)-2,6-dimethyl-4-oxo-1-phenyl-1,4-hydroquinoline-3-carboxamide]
  IC50: 618 nM

## CCN1CCN(c2cc3c(cc2F)c(=O)c(C(=O)Nc2ccc(Oc4ncnc5cc(OC)c(OC)cc45)c(F)c2)cn3C2CC2)CC1 [GDL5000093, 1-cyclopropyl-N-(4-(6,7-dimethoxyquinazolin-4-yloxy)-3-fluorophenyl)-7-(4-ethylpiperazin-1-yl)-6-fluoro-4-oxo-1,4-dihydroquinoline-3-carboxamide]
  IC50: 277 nM

## COc1cc2ncnc(Oc3ccc(NC(=O)c4cn(-c5ccc(F)cc5F)c5nc(N6CCC(N)C6)c(F)cc5c4=O)cc3F)c2cc1OC (stereo not drawn) [GDL5000101, 7-(3-aminopyrrolidin-1-yl)-1-(2,4-difluorophenyl)-N-(4-(6,7-dimethoxyquinazolin-4-yloxy)-3-fluorophenyl)-6-fluoro-4-oxo-1,4-dihydro-1,8-naphthyridine-3-carboxamide]
  IC50: 81 nM

## CCn1cc(C(=O)Nc2ccc(Oc3ncnc4cc(OC)c(OC)cc34)c(F)c2)c(=O)c2cc(F)c(N3CCNCC3)nc21 [GDL5000102, N-(4-((6,7-dimethoxyquinazolin-4-yl)oxy)-3-fluorophenyl)-1-ethyl-6-fluoro-4-oxo-7-(piperazin-1-yl)-1,4-dihydro-1,8-naphthyridine-3-carboxamide]
  IC50: 64 nM

## COc1cc2ncnc(Oc3ccc(NC(=O)c4cn5c6c(c(N7CCN(C)CC7)c(F)cc6c4=O)OC[C@@H]5C)cc3F)c2cc1OC [GDL5000111, (S)—N-(4-((6,7-dimethoxyquinazolin-4-yl)oxy)-3-fluorophenyl)-9-fluoro-3-methyl-10-(4-methylpiperazin-1-yl)-7-oxo-3,7-dihydro-2H-[1,4]oxazino[2,3,4-ij]quinoline-6-carboxamide]
  IC50: 1080 nM

## Cc1c(C(=O)Nc2ccc(Oc3ccnc4[nH]nc(-c5ccccc5)c34)c(F)c2)c(=O)c2cc(Cl)ccc2n1C [TL50025, 6-chloro-N-(3-fluoro-4-((3-phenyl-1H-pyrazolo[3,4-b]pyridin-4-yl)oxy)phenyl)-1,2-dimethyl-4-oxo-1,4-dihydroquinoline-3-carboxamide]
  IC50: 569 nM

## Cc1c(C(=O)Nc2ccc(Oc3ncnc4[nH]ccc34)c(F)c2)c(=O)c2cc(Cl)ccc2n1C [TL50046, N-(4-((7H-pyrrolo[2,3-d]pyrimidin-4-yl)oxy)-3-fluorophenyl)-6-chloro-1,2-dimethyl-4-oxo-1,4-dihydroquinoline-3-carboxamide]
  IC50: > 10000 nM

## Cc1c(C(=O)Nc2ccc(Oc3ncnc4[nH]cc(-c5ccccc5)c34)c(F)c2)c(=O)c2cc(Cl)ccc2n1C [TL50053, 6-chloro-N-(3-fluoro-4-((5-phenyl-7H-pyrrolo[2,3-d]pyrimidin-4-yl)oxy)phenyl)-1,2-dimethyl-4-oxo-1,4-dihydroquinoline-3-carboxamide]
  IC50: 1890 nM

## Cc1c(C(=O)Nc2ccc(Oc3ncnc4[nH]cc(-c5ccccc5)c34)c(F)c2)c(=O)c2ccccc2n1C [TL50054, N-(3-fluoro-4-((5-phenyl-7H-pyrrolo[2,3-d]pyrimidin-4-yl)oxy)phenyl)-1,2-dimethyl-4-oxo-1,4-dihydroquinoline-3-carboxamide]
  IC50: > 10000 nM

## Cc1c(C(=O)Nc2ccc(Oc3ncnc4[nH]cc(-c5ccccc5)c34)c(F)c2)c(=O)c2ccc(Cl)cc2n1C [TL50080, 7-chloro-N-(3-fluoro-4-((5-phenyl-7H-pyrrolo[2,3-d]pyrimidin-4-yl)oxy)phenyl)-1,2-dimethyl-4-oxo-1,4-dihydroquinoline-3-carboxamide]
  IC50: > 10000 nM

## Cc1c(C(=O)Nc2ccc(Oc3ncnc4[nH]cc(-c5ccccc5)c34)c(F)c2)c(=O)c2c(Cl)cccc2n1C [TL50081, 5-chloro-N-(3-fluoro-4-((5-phenyl-7H-pyrrolo[2,3-d]pyrimidin-4-yl)oxy)phenyl)-1,2-dimethyl-4-oxo-1,4-dihydroquinoline-3-carboxamide]
  IC50: > 10000 nM

## Cc1c(C(=O)Nc2ccc(Oc3ncnc4[nH]cc(-c5ccccc5)c34)c(F)c2)c(=O)c2ccc(C(F)(F)F)cc2n1C [TL50086, N-(3-fluoro-4-(5-phenyl-7H-pyrrolo[2,3-d]pyrimidin-4-yloxy)phenyl)-1,2-dimethyl-4-oxo-7-(trifluoromethyl)-1,4-dihydroquinoline-3-carboxamide]
  IC50: > 10000 nM

## Cc1c(C(=O)Nc2ccc(Oc3ccnc4[nH]ccc34)c(F)c2)c(=O)c2cc(Cl)ccc2n1C [TL50090, N-(4-((1H-pyrrolo[2,3-b]pyridin-4-yl)oxy)-3-fluorophenyl)-6-chloro-1,2-dimethyl-4-oxo-1,4-dihydroquinoline-3-carboxamide]
  IC50: 2630 nM

## Cc1ccc2c(c1)c(=O)c(C(=O)Nc1ccc(Oc3ncnc4[nH]cc(-c5ccccc5)c34)c(F)c1)c(C)n2C [TL50115, N-(3-fluoro-4-(5-phenyl-7H-pyrrolo[2,3-d]pyrimidin-4-yloxy)phenyl)-1,2,6-trimethyl-4-oxo-1,4-dihydroquinoline-3-carboxamide]
  IC50: 102 nM

## Cc1c(C(=O)Nc2ccc(Oc3ccnc4[nH]cc(-c5ccccc5)c34)c(F)c2)c(=O)c2cc(Cl)ccc2n1C [TL50128, 6-chloro-N-(3-fluoro-4-((3-phenyl-1H-pyrrolo[2,3-b]pyridin-4-yl)oxy)phenyl)-1,2-dimethyl-4-oxo-1,4-dihydroquinoline-3-carboxamide]
  IC50: 211 nM

## Cc1c(C(=O)Nc2ccc(Oc3ncnc4[nH]cc(-c5ccccc5)c34)c(F)c2)c(=O)c2cc(Br)ccc2n1C [TL50133, 6-bromo-N-(3-fluoro-4-((5-phenyl-7H-pyrrolo[2,3-d]pyrimidin-4-yl)oxy)phenyl)-1,2-dimethyl-4-oxo-1,4-dihydroquinoline-3-carboxamide]
  IC50: 3120 nM

## Cc1ccc2c(c1)c(=O)c(C(=O)Nc1ccc(Oc3ncnc4c3c(-c3ccccc3)cn4C)c(F)c1)c(C)n2C [TL50134, N-(3-fluoro-4-(7-methyl-5-phenyl-7H-pyrrolo[2,3-d]pyrimidin-4-yloxy)phenyl)-1,2,6-trimethyl-4-oxo-1,4-dihydroquinoline-3-carboxamide]
  IC50: > 10000 nM

## Cc1c(C(=O)Nc2ccc(Oc3ncnc4[nH]cc(-c5ccccc5)c34)c(F)c2)c(=O)c2cc(C3CC3)ccc2n1C [TL50148, 6-cyclopropyl-N-(3-fluoro-4-((5-phenyl-7H-pyrrolo[2,3-d]pyrimidin-4-yl)oxy)phenyl)-1,2-dimethyl-4-oxo-1,4-dihydroquinoline-3-carboxamide]
  IC50: 227 nM
